Test results reported in patent publication US20170334877A1, “REVAPRAZAN HYDROCHLORIDE POLYMORPHS AND PREPARATION METHOD THEREFOR” (JIANGSU TASLY DIYI PHARMACEUTICAL CO., LTD., priority 2014, published 2017).
Where a name gives a salt, the structure may show the parent alone.

Assays:
Assay type in all cases: physicochemical
[1] = Accelerated test (40±2° C., relative humidity 75±5%, 6 months, sealed polyethylene film bag); conditions: for Appearance color / Purity (%) / Relevant substances: 40±2° C., RH 75±5%; for Purity (%) / Relevant substances: hydrochloride; for Stability (conclusion in words): accelerated test, no obvious changes in appearance color, purity, relevant substances
Experimental: Revaprazan hydrochloride crystalline form I is sealed in a polyethylene film bag, is placed for 6 months under the conditions that the temperature is 40±2° C. and the relative humidity is 75±5%, and is respectively sampled at the end of the 1st Month, the 2nd Month, the 3rd Month and the 6^thMonth for detection; and the results are shown in Table 4. Revaprazan hydrochloride crystalline form II is sealed in a polyethylene film bag and is placed for 6 months under the conditions that the temperature is 40±2° C. and the relative humidity is 75±5%, and is respectively sampled at the end of the 1st Month, the 2nd Month, the 3rd Month and the 6th Month for detection; and the results are shown in Table 8. Revaprazan hydrochloride crystalline form III is sealed in a polyethylene film bag, is placed for 6 months under the conditions that the temperature is 40±2° C. and the relative humidity is 75±5%, and is sampled at the end of the 1st Month, the 2nd Month, the 3rd Month and the 6th Month for detection. Revaprazan hydrochloride crystalline form IV is sealed in a polyethylene film bag, is placed for 6 months under the conditions that the temperature is 40±2° C. and the relative humidity is 75±5%, and is sampled at the end of the 1st Month, the 2nd Month, the 3rd Month and the 6th Month for detection. Revaprazan hydrochloride crystalline form V is sealed in a polyethylene film bag and is placed for 6 months under the condition that the temperature is 40±2° C. and the relative humidity is 75±5%, and is sampled at the end of the 1st month, the 2nd month, the 3rd month and the 6th month for detection, and the results are shown in Table 20.

[2] = High temperature test (60° C. incubator); conditions: for Appearance color / Loss on drying (%) / Purity (%) / Relevant substances: 60° C., hydrochloride; for Stability (conclusion in words): high temperature, no obvious changes in appearance color, loss on drying, purity, relevant substances
Experimental: Revaprazan hydrochloride crystalline form I is placed in a 60° C. incubator, and is sampled on the 5th day and 10th day for detection, and the results are shown in Table 2. Revaprazan hydrochloride crystalline form II is placed in a 60° C. incubator, and is sampled on the 5th day and 10th day for detection, and the results are shown in Table 6. Revaprazan hydrochloride polymorph III is placed in an incubator of 60° C., and is sampled on the 5th day and the 10th day for detection. Revaprazan hydrochloride crystalline form IV is placed in an incubator of 60° C., and is sampled on the 5th day and the 10th day for detection. Revaprazan hydrochloride crystal form 4 is placed in an incubator of 60° C.; and is sampled on the 5th day and the 10th day for detection, and the results are shown in Table 23.

[3] = Light illumination test (intense light, 4500±500 Lx); conditions: for Stability (conclusion in words): intense light illumination, no obvious changes in appearance color, loss on drying, purity, relevant substances; for Appearance color / Loss on drying (%) / Purity (%) / Relevant substances: light 4500±500 Lx; for Loss on drying (%) / Purity (%) / Relevant substances: hydrochloride
Excerpt: Revaprazan hydrochloride crystalline form I is irradiated under such a condition that the light intensity is 4500±500 Lx, and is sampled on the 5th day and 10th day for detection, and the results are shown in Table 1. Revaprazan hydrochloride crystalline form II is irradiated under the condition that the light intensity is 4500±500Lx, and is sampled on the 5th day and 10th day for detection. Revaprazan hydrochloride polymorph III is irradiated under such a condition that the light intensity is 4500±500Lx, and is sampled on the 5th day and 10th day for detection. Revaprazan hydrochloride […] is irradiated under such a condition that the light intensity is 4500±500Lx, and is sampled on the 5th day and the 10th day for detection. Revaprazan hydrochloride crystalline form V is irradiated under the light intensity condition of 4500±500Lx; and is sampled on the 5th day and 10th day for detection.

[4] = High humidity test (25° C., relative humidity 75±5%); conditions: for Appearance color / Purity (%) / Relevant substances / Weight gain upon moisture absorption (%): 25° C., RH 75±5%; for Weight gain upon moisture absorption (in words): high humidity condition; for Stability (conclusion in words): high humidity, no obvious changes in appearance color, purity, relevant substances
Experimental: Revaprazan hydrochloride crystalline form I is placed in an incubator of 25° C. (relative humidity of 75±5%), and is sampled on the 5th day and 10th day for detection. Revaprazan hydrochloride crystalline form II is placed in an incubator of 25° C. (relative humidity of 75±5%), and is sampled on the 5th day and 10th day for detection. Revaprazan hydrochloride polymorph III is placed in an incubator of 25° C. (relative humidity of 75±5%), and is sampled on the 5th day and the 10th day for detection. Revaprazan hydrochloride crystalline form IV is placed in an incubator of 25° C. Revaprazan hydrochloride crystal form 4 is placed in an incubator of 25° C. (the relative humidity is 75±5%), and is sampled on the 5th day and the 10th day for detection.

## Cc1nc(Nc2ccc(F)cc2)nc(N2CCc3ccccc3C2C)c1C (single isomer, unassigned) [revaprazan hydrochloride crystalline form I]
[1]; 1st month
  Appearance color: White powder
  Purity (%): 99.97%
  Relevant substances: Not detected
[1]; 2nd month
  Appearance color: White powder
  Purity (%): 99.92%
  Relevant substances: Not detected
[1]; 3rd month
  Appearance color: White powder
  Purity (%): 99.96%
  Relevant substances: Not detected
[1]; 6th month
  Appearance color: White powder
  Purity (%): 99.95%
  Relevant substances: Not detected
[1]; Month 0
  Appearance color: White powder
  Purity (%): 99.96%
  Relevant substances: Not detected
[1]
  Stability (conclusion in words): stable
[2]; 5th day
  Appearance color: White powder
  Loss on drying (%): 0.23%
  Purity (%): 99.95%
  Relevant substances: Not detected
[2]; 10th day
  Appearance color: White powder
  Loss on drying (%): 0.24%
  Purity (%): 99.98%
  Relevant substances: Not detected
[2]; Day 0
  Appearance color: White powder
  Loss on drying (%): 0.21%
  Purity (%): 99.96%
  Relevant substances: Not detected
[2]
  Stability (conclusion in words): stable
[3]
  Stability (conclusion in words): stable
[3]; 5th day
  Appearance color: White powder
  Loss on drying (%): 0.28%
  Purity (%): 99.92%
  Relevant substances: Not detected
[3]; 10th day
  Appearance color: White powder
  Loss on drying (%): 0.30%
  Purity (%): 99.94%
  Relevant substances: Not detected
[3]; Day 0
  Appearance color: White powder
  Loss on drying (%): 0.27%
  Purity (%): 99.96%
  Relevant substances: Not detected
[4]; 5th day
  Appearance color: White powder
[4]; 5th day, hydrochloride
  Purity (%): 99.93%
  Relevant substances: Not detected
  Weight gain upon moisture absorption (%): 0.42%
[4]; 10th day
  Appearance color: White powder
[4]; 10th day, hydrochloride
  Purity (%): 99.95%
  Relevant substances: Not detected
  Weight gain upon moisture absorption (%): 0.63%
[4]; Day 0
  Appearance color: White powder
  Weight gain upon moisture absorption (%): 0%
[4]; Day 0, hydrochloride
  Purity (%): 99.96%
  Relevant substances: Not detected
[4]
  Weight gain upon moisture absorption (in words): slight weight gain
  Stability (conclusion in words): stable

## Cc1nc(Nc2ccc(F)cc2)nc(N2CCc3ccccc3C2C)c1C (single isomer, unassigned) [revaprazan hydrochloride crystalline form II]
[1]; 1st month
  Appearance color: White powder
  Purity (%): 99.93%
[1]; 2nd month
  Appearance color: White powder
  Purity (%): 99.95%
[1]; 3rd month
  Appearance color: White powder
  Purity (%): 99.96%
[1]; 6th month
  Appearance color: White powder
  Purity (%): 99.95%
[1]; Month 0
  Appearance color: White powder
  Purity (%): 99.94%
[1]
  Stability (conclusion in words): stable
[2]; 5th day
  Appearance color: White
  Loss on drying (%): 0.27%
  Purity (%): 99.97%
  Relevant substances: Not detected
[2]; 10th day
  Appearance color: White
  Loss on drying (%): 0.29%
  Purity (%): 99.95%
  Relevant substances: Not detected
[2]; Day 0
  Appearance color: White
  Loss on drying (%): 0.23%
  Purity (%): 99.94%
  Relevant substances: Not detected
[2]
  Stability (conclusion in words): stable
[3]
  Stability (conclusion in words): stable
[3]; 5th day
  Appearance color: White powder
  Loss on drying (%): 0.26%
  Purity (%): 99.97%
  Relevant substances: Not detected
[3]; 10th day
  Appearance color: White powder
  Loss on drying (%): 0.28%
  Purity (%): 99.94%
  Relevant substances: Not detected
[3]; Day 0
  Appearance color: White powder
  Loss on drying (%): 0.25%
  Purity (%): 99.94%
  Relevant substances: Not detected
[4]; 5th day
  Appearance color: White powder
[4]; 5th day, hydrochloride
  Purity (%): 99.93%
  Relevant substances: Not detected
  Weight gain upon moisture absorption (%): 0.42%
[4]; 10th day
  Appearance color: White powder
[4]; 10th day, hydrochloride
  Purity (%): 99.95%
  Relevant substances: Not detected
  Weight gain upon moisture absorption (%): 0.64%
[4]; Day 0
  Appearance color: White powder
  Weight gain upon moisture absorption (%): 0%
[4]; Day 0, hydrochloride
  Purity (%): 99.94%
  Relevant substances: Not detected
[4]
  Weight gain upon moisture absorption (in words): slight weight gain
  Stability (conclusion in words): stable
